Consider two compounds from paper PMC2610240 (Drug metabolism and disposition: the biological fate of …, 2008).

SMILES strings stand for the structures. Values joined by “and” are separate entries in the source; they are usually repeats but may differ in a detail not shown here. Identical values can stand only once.

In data set [1] the target is T1, purified recombinant human b5R (NADH b5 reductase) (Homo sapiens, UniProt P00387).
T1 sequence (P00387 1-301): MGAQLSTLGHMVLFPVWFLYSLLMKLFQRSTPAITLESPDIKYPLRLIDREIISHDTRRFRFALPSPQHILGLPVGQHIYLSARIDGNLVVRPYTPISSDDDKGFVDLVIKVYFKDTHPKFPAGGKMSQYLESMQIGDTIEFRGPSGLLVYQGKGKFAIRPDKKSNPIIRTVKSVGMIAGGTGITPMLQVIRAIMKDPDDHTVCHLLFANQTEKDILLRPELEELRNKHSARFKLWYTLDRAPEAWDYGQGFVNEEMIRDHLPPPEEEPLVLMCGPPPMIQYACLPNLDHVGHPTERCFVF
Description: Inhibition of recombinant b5R activity. The data set is classed as biochemical.

The target of data set [2] is T2, b5R activity in human liver microsomes (Homo sapiens, UniProt P00387).
T2 sequence (P00387 1-301): T1 sequence (P00387 1-301)
Description: Inhibition of b5R activity in HLMs. In kind it is biochemical.

Data set [3] has as its system CPR activity in rat liver microsomes. Particulars: concentrations up to 10 mM, ref Lee and Kariya, 1986; cited from earlier work.
Data set [4] concerns b5R activity in rat liver microsomes. The following applies: concentrations up to 10 mM, ref Lee and Kariya, 1986; cited from earlier work.
For data set [5], the target named is T3, CPR activity in human liver microsomes (Homo sapiens, UniProt P16435).
T3 sequence (P16435 1-677): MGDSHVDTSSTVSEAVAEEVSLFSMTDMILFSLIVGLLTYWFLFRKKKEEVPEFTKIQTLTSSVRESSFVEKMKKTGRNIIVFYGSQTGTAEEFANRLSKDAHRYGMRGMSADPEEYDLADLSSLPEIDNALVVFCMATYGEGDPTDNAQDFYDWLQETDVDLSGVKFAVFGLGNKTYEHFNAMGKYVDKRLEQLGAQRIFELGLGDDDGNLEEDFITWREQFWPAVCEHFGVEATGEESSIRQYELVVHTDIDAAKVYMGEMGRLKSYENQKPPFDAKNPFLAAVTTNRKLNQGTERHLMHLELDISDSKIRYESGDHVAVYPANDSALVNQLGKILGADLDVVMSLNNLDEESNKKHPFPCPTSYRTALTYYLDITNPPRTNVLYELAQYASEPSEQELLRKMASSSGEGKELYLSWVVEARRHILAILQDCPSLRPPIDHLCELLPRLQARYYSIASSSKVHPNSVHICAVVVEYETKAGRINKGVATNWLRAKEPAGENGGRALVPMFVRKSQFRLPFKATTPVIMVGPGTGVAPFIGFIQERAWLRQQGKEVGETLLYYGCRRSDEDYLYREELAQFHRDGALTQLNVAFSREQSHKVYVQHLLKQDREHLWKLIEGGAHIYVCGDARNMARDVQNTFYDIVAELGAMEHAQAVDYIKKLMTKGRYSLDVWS
Description: Inhibition of CPR activity in HLMs.

Data set [6] deals with T4, purified recombinant human CPR (NADPH-cytochrome P450 reductase) (Homo sapiens, UniProt P16435).
T4 sequence (P16435 1-677): T3 sequence (P16435 1-677)
Description: Inhibition of recombinant CPR activity. Particulars: recombinant enzyme.

The target in data set [7] is T4, purified recombinant human CPR (NADPH-cytochrome P450 reductase). Description: biochemical.

For the compound `CCCc1cc(=O)[nH]c(=S)[nH]1` [PTU, 6-propyl-2-thiouracil], in data set [1] (recombinant enzyme, 4 mM PTU, 15 min pre-incubation at 25°C), the “decrease in b5R activity” value worked out at 78%. Besides, in data set [2] (4 mM PTU (highest concentration), 15 min pre-incubation at 25°C), the “reduction in b5R activity” value was determined as 41%. In data set [2] (over 1 to 4 mM PTU), the “maximal inhibition of b5R activity” value is given as “about 40%”. Further, in data set [3], the “effect on CPR activity” value is reported as “without reducing CPR activity”. The “effect on b5R activity” value in data set [4] was “selectively inhibit b5R activity”. Further, in data set [5] (4 mM PTU (highest concentration)), the “reduction in CPR activity” value was 16% and < 20%. The “decrease in CPR activity” value in data set [6] (4 mM PTU) is listed as 51%.

With `O=C(O)CCCCC1CCSS1` (stereo not drawn) [α-lipoic acid], the IC50 in data set [1] came to 50 ± 50 µM; in data set [7], 140 ± 20 µM. Further, the “reduction in b5R activity” value was determined as 84% in data set [1] (recombinant enzyme, 2 mM α-lipoic acid, maximal effect) and 54% in data set [2] (2 mM α-lipoic acid). Further, the “reduction in CPR activity” value amounted to 76% in data set [5] (2 mM α-lipoic acid) and 92% in data set [6] (2 mM α-lipoic acid, maximal effect).

A word on the IC50: it is the point on the concentration scale where inhibition reaches its midpoint.
